From patent US20210024542A1 (Torcept Therapeutics, Inc., priority 2018, published 2021)

Assays:
[1] = tested on: PC-3; test: OncoPanel cell proliferation assay, PC-3; conditions: for Cell Count Activity Area: PC-3, scale 0-10
Procedure: (§7) Cells were seeded into 384-well plates and incubated in a humidified atmosphere of 5% CO2 at 37° C. Compounds were added the day following cell seeding. At the same time, a time zero untreated cell plate was generated. After a 3-day incubation period, cells were fixed and stained to allow fluorescence imaging of nuclei. Compounds (1 mM stock solutions) were serially diluted in half-log steps from the highest test concentration (1 micromol), and assayed over 10 concentrations with a maximum assay concentration of 0.1% DMSO. Automated fluorescence microscopy was carried out using a Molecular Devices ImageXpress Micro XL high-content imager, and images were collected with a 4× objective. 16-bit TIFF images were acquired and analyzed with MetaXpress 5.1.0.41 software.

[2] = tested on: OVCAR3; test: OncoPanel cell proliferation assay, OVCAR3; conditions: for Cell Count Activity Area: OVCAR3, scale 0-10
Procedure: as §7

[3] = tested on: DMS114; test: OncoPanel cell proliferation assay, DMS114; format: cell-based, human
Procedure: (§1) Cells were seeded into 384-well plates and incubated in a humidified atmosphere of 5% CO2 at 37° C. Compounds were added the day following cell seeding. At the same time, a time zero untreated cell plate was generated. After a 3-day incubation period, cells were fixed and stained to allow fluorescence imaging of nuclei. Compounds (1 mM stock solutions) were serially diluted in half-log steps from the highest test concentration ([…]), and assayed over 10 concentrations with a maximum assay concentration of 0.1% DMSO. Automated fluorescence microscopy was carried out using a Molecular Devices ImageXpress Micro XL high-content imager, and images were collected with a 4× objective. 16-bit TIFF images were acquired and analyzed with MetaXpress 5.1.0.41 software.
(§2) Cell proliferation was measured by the fluorescence intensity of an incorporated nuclear dye. The output is referred to as the relative cell count, where the measured nuclear intensity is transformed to percent of control (POC) using the following formula: […]
(§3) Cellular response parameters were calculated using nonlinear regression to a sigmoidal single-site dose response model:
(§4) Where y is a response measured at concentration x, A and B are the lower and upper limits of the response, C is the concentration at the response midpoint (EC50), and D is the Hill Slope (Ref. 1).
(§5) GI50 is the concentration needed to reduce the observed growth by half (midway between the curve maximum and the time zero value). […] In rare instances, values <0 or >10 may be observed. […] Curve-fitting, calculations, and report generation was performed using a custom data reduction engine and MathIQ based software (AIM).

[4] = tested on: CML-T1; test: OncoPanel cell proliferation assay, CML-T1; format: cell-based, human; conditions: CML-T1, scale 0-10
Procedure: as §1, with “Cells were grown in RPMI 1640, 10% FBS, 2 mM L-alanyl-L-glutamine, 1 mM Na pyruvate, or a special medium. Cells” for “Cells”
as §2, §3, §4
(§6) EC50 is the test compound concentration at the curve inflection point or half the effective response (parameter C of the fitted curve solution). GI50 is the concentration needed to reduce the observed growth by half (midway between the curve maximum and the time zero value). “Cell Count Activity Area” is an estimate of the integrated area above the curve (Barretina, et al. The Cancer Cell Line Encyclopedia enables predictive modelling of anticancer drug sensitivity. Nature 483: 603-607). […] In rare instances, values <0 or >10 may be observed. […] Curve-fitting, calculations, and report generation was performed using a custom data reduction engine and MathIQ based software (AIM).

[5] = tested on: SW684; test: OncoPanel cell proliferation assay, SW684; format: cell-based, human
Procedure: as §1, §2, §3, §4, §5

[6] = tested on: A431; test: OncoPanel cell proliferation assay, A431; format: cell-based, human; conditions: for Cell Count Activity Area: A431, scale 0-10
Procedure: as §1, with “Cells were grown in RPMI 1640, 10% FBS, 2 mM L-alanyl-L-glutamine, 1 mM Na pyruvate, or a special medium. Cells” for “Cells”
as §2, §3, §4, §6

[7] = tested on: SHP-77; test: OncoPanel cell proliferation assay, SHP-77; conditions: for Cell Count Activity Area: SHP-77, scale 0-10
Procedure: as §7

[8] = tested on: SCaBER; test: OncoPanel cell proliferation assay, SCaBER; format: cell-based, human; conditions: scale 0-10
Procedure: as §1, with “Cells were grown in RPMI 1640, 10% FBS, 2 mM L-alanyl-L-glutamine, 1 mM Na pyruvate, or a special medium. Cells” for “Cells”
as §2, §3, §4, §6

[9] = tested on: SK-MEL-28; test: OncoPanel cell proliferation assay, SK-MEL-28; format: cell-based, human; conditions: for Cell Count Activity Area: SK-MEL-28, scale 0-10
Procedure: as §1, with “Cells were grown in RPMI 1640, 10% FBS, 2 mM L-alanyl-L-glutamine, 1 mM Na pyruvate, or a special medium. Cells” for “Cells”
as §2, §3, §4, §6

[10] = tested on: TF-1; test: OncoPanel cell proliferation assay, TF-1; format: cell-based, human; conditions: for Cell Count Activity Area: TF-1, scale 0-10
Procedure: as §1, with “Cells were grown in RPMI 1640, 10% FBS, 2 mM L-alanyl-L-glutamine, 1 mM Na pyruvate, or a special medium. Cells” for “Cells”
as §2, §3, §4, §6

[11] = tested on: SK-NEP-1; test: OncoPanel cell proliferation assay, SK-NEP-1; conditions: SK-NEP-1, scale 0-10
Procedure: as §7

[12] = tested on: SNU-C2B; test: OncoPanel cell proliferation assay, SNU-C2B; format: cell-based, human; conditions: for Cell Count Activity Area: scale 0-10
Procedure: as §1, with “Cells were grown in RPMI 1640, 10% FBS, 2 mM L-alanyl-L-glutamine, 1 mM Na pyruvate, or a special medium. Cells” for “Cells”
as §2, §3, §4, §6

CO[C@H]1C[C@@H]2CC[C@@H](C)[C@@](O)(O2)C(=O)C(=O)N2CCCC[C@H]2C(=O)O[C@H]([C@H](C)C[C@@H]2CC[C@@H](O)[C@H](OC)C2)CC(=O)[C@H](C)/C=C(\C)[C@@H](O)[C@@H](OC)C(=O)[C@H](C)C[C@H](C)/C=C/C=C/C=C/1C [Rapamycin, reference compound]
EC50 ([1]; Homo sapiens, PC-3, 72 h, read-out: Cell Count EC50): 0.00023 µM | IC50 ([1]; Homo sapiens, PC-3, 72 h, read-out: Cell Count IC50): > 1 µM | Cell Count Activity Area [1]: 3.57 | IC50 ([2]; Homo sapiens, OVCAR-3, 72 h, read-out: Cell Count IC50): > 1 µM | Cell Count Activity Area [2]: 2.08 | Cell Count Activity Area ([3]; DMS114, scale 0-10): 4.14 | IC50 ([3]; Homo sapiens, DMS-114, 72 h, DMS114, 3-day incubation, read-out: Cell Count IC50): > 1 µM | Cell Count Activity Area [4]: 4.56 | IC50 ([5]; Homo sapiens, 72 h, SW684, 3-day incubation, read-out: Cell Count IC50): > 1 µM | Cell Count Activity Area ([5]; SW684, scale 0-10): 2.81 | Cell Count Activity Area [6]: 0.28 | EC50 ([6]; Homo sapiens, A-431, 72 h, A431, 3-day incubation, read-out: Cell Count EC50): > 1 µM | GI50 ([6]; Homo sapiens, A-431, 72 h, A431, 3-day incubation, read-out: Cell Count GI50): > 1 µM | IC50 ([6]; Homo sapiens, A-431, 72 h, A431, 3-day incubation, read-out: Cell Count IC50): > 1 µM | EC50 ([7]; Homo sapiens, SHP77, 72 h, read-out: Cell Count EC50): > 1 µM | GI50 ([7]; Homo sapiens, SHP77, 72 h, read-out: Cell Count GI50): > 1 µM | IC50 ([7]; Homo sapiens, SHP77, 72 h, read-out: Cell Count IC50): > 1 µM | Cell Count Activity Area [7]: 1.13 | Cell Count Activity Area [8]: 5.25 | IC50 ([9]; Homo sapiens, 72 h, SK-MEL-28, 3-day incubation, read-out: Cell Count IC50): > 1 µM | Cell Count Activity Area [9]: 2.50 | EC50 ([10]; Homo sapiens, 72 h, TF-1, 3-day incubation, read-out: Cell Count EC50): > 1 µM | GI50 ([10]; Homo sapiens, 72 h, TF-1, 3-day incubation, read-out: Cell Count GI50): > 1 µM | IC50 ([10]; Homo sapiens, 72 h, TF-1, 3-day incubation, read-out: Cell Count IC50): > 1 µM | Cell Count Activity Area [10]: 1.52 | Cell Count Activity Area [11]: 4.22 | EC50 ([12]; Homo sapiens, 72 h, 3-day incubation, read-out: Cell Count EC50): > 1 µM | GI50 ([12]; Homo sapiens, 72 h, 3-day incubation, read-out: Cell Count GI50): > 1 µM | IC50 ([12]; Homo sapiens, 72 h, 3-day incubation, read-out: Cell Count IC50): > 1 µM | Cell Count Activity Area [12]: 1.99

CN[C@@H]1C[C@H]2O[C@@](C)([C@@H]1OC)n1c3ccccc3c3c4c(c5c6ccccc6n2c5c31)C(=O)NC4 [Staurosporine, reference compound]
Cell Count Activity Area [1]: 4.67 | Cell Count Activity Area [2]: 3.41 | EC50 ([3]; Homo sapiens, DMS-114, 72 h, DMS114, 3-day incubation, read-out: Cell Count EC50): 0.021 µM | Cell Count Activity Area [4]: 4.13 | GI50 ([5]; Homo sapiens, 72 h, SW684, 3-day incubation, read-out: Cell Count GI50): 0.00095 µM | Cell Count Activity Area [6]: 5.64 | Cell Count Activity Area [7]: 3.16 | Cell Count Activity Area [8]: 6.03 | Cell Count Activity Area [9]: 2.81 | Cell Count Activity Area [10]: 3.31 | Cell Count Activity Area [11]: 2.78 | Cell Count Activity Area [12]: 3.80
